The values below are quoted from earlier work in US12274730B2, “Flavonoid compositions and methods of use” (Berkley, LLC, priority 2015, dated 2025).

The conditions of the data set: general statement, no test described.

Regarding `O=c1c(O)c(-c2ccc(O)c(O)c2)oc2cc(O)cc(O)c12` [Quercetin, 2-(3,4-dihydroxyphenyl)-3,5,7-trihydroxy-4H-chromen-4-one], the Half-life is 3.5 to 11 h.
